Reference: US4798811A, “Combination preparation” (BASF Aktiengesellschaft, priority 1986, dated 1989)

Key:
thrombocyte aggregation [1] = assay: Ex vivo inhibition of thrombocyte aggregation after oral administration to five test persons; assay type: in vivo; details: four hours after administration
Protocol: (§1) The following methods were used:
(§2) Venous blood was taken from four test persons and rendered unclottable by adding citrate, and thrombocyte-rich plasma was then obtained from this blood by centrifuging under 300 g for 10 minutes at 4° C. The addition of adrenalin (final concentration 5×10^-8 mole/liter) and collagen (final concentration 2×10^-3 g/liter) to the thrombocyte-rich plasma caused aggregation, which was measured as the change in extinction using a Born aggregometer MK 3. The maximum change in extinction per second was used as a measure of aggregation. The percentage inhibition of aggregation was determined by comparing the values before and after administration of the substance.
2. Ex vivo investigations
The candidate compounds were filled into stomach-soluble gelatine capsules and administered orally to five test persons. Venous blood was taken before administration of the substances and four hours after administration. This blood was prepared as under 1 and made to aggregate. The percentage inhibition of aggregation was determined by comparing the values before and after administration of the substance.

thrombocyte aggregation [2] = assay: In vitro inhibition of thrombocyte aggregation induced by adrenalin and collagen in thrombocyte-rich plasma; assay type: cell-based, test persons
Protocol: as §1
1. In vitro investigations
as §2

SMILES: CC(=O)Oc1ccccc1C(=O)O [ASA, acetylsalicylic acid]
- Aggregation inhibition (%) (thrombocyte aggregation [1]; oral Dosage 60 mg): 0%
- inhibition at 1 µg/mL (thrombocyte aggregation [2]; Conc. 1 mg/l, adrenalin 5×10^-8 mole/liter and collagen 2×10^-3 g/liter): 0%
- aggregation inhibition (in words) (thrombocyte aggregation [2]; dose of 1.0 mg/l): ineffective

SMILES: COc1ccc(CCN(C)CCCC(C#N)(c2ccc(OC)c(OC)c2)C(C)C)cc1OC (stereo not drawn) [Verapamil, 1,7-bis-(3,4-dimethoxyphenyl)-3-methylaza-7-cyano-8-methylnonane]
- Aggregation inhibition (%) (thrombocyte aggregation [1]; oral Dosage 240 mg): 33%
- inhibition at 2 µg/mL (thrombocyte aggregation [2]; Conc. 2 mg/l, adrenalin 5×10^-8 mole/liter and collagen 2×10^-3 g/liter): 8.7%
- inhibition at 10 µg/mL (thrombocyte aggregation [2]; Conc. 10 mg/l, adrenalin 5×10^-8 mole/liter and collagen 2×10^-3 g/liter): 31%
